Patent publication US4255183A, “Substituted phenyl urea and herbicides for use in paddy field” (Hokko Chemical Industry Co., Ltd., priority 1977, dated 1981)
Like-named read-outs stand apart in the source and are kept apart here.

Tests used:
paddy rice [1] = test: whole plant or invertebrate; assay type: in vivo, paddy rice (Asahi species); settings: Oryza sativa, 720 h; for inhibition at 9000 g/ha: 900 g/10 are
Experimental: (§1) In a Wagner pot of 1/500 are, paddy field soil (alluvial soil) was placed and 50 seeds of Echinochloa crus-galli var. oryzicola and 30 seeds of paddy rice were seeded in the surface layer of said soil and the submerging depth was kept at about 1 cm. When Echinochloa crus-galli var. oryzicola reached at the one leaf stage and 5-leaf stage, the emulsion of a predetermined concentration, prepared according to Example 4 was added dropwise. After 30 days from the treatment with the chemical, dry weights of Echinochloa crus-galli var. oryzicola and paddy rice were measured and the inhibition rate was calculated with reference to untreated area. [formula]
(§2) In a concrete pot of 1/400 are (50 cm×50 cm), paddy field soil (alluvial soil) was placed and 200 seeds of Echinochloa crus-galli var. oryzicola were seeded in 10 surface layer of said soil and the soil was submerged at about 3 cm depth. Before emergence of Echinochloa crus-galli var. oryzicola, paddy rice at 2.5-leaf stage (Asahi species) was transplanted at the rate of 8 stubs per pot, planting 3 seedlings per stub. At the one-leaf stage (3.5 leaves stage of paddy rice) and 5 leaves stage (7 leaves stage of paddy rice) of Echinochloa crus-galli var. oryzicola, the granule prepared according to Example 1 was applied. […] 30 Days after the treatment with the chemical, examination was made in the similar manner as Test Example 1 to obtain results as shown in Table 2.
(§3) In the table, as the comparative chemicals CPN, Benthiocarb, Molinate and Simetryne, those commercially available were used and the comparative chemicals A and B (as mentioned before) used were prepared according to the process for preparing the compound of this invention.

[2] = tested on: Echinochloa crus-galli var. oryzicola; test: Test Example 2: concrete pot test on killing effect, Echinochloa crus-galli var. oryzicola; assay type: in vivo; settings: Echinochloa crus-galli, 720 h; for inhibition at 9000 g/ha: 900 g/10 are
Experimental: as §1, §2, §3

paddy rice [3] = test: Test Example 1: pot test on selectivity, inhibition of paddy rice; assay type: in vivo; settings: dry weight 30 days after treatment
Experimental: as §1, with “When Echinochloa crus-galli var. oryzicola reached at the one leaf stage and 5-leaf stage, the emulsion of a predetermined concentration, prepared according to Example 4 was added dropwise.” left out
(§4) The comparative chemicals used, i.e. DCMU and Linuron, were those commercially available, and the comparative chemicals A and B used were prepared according to the process for formulating the compound of this invention.

[4] = tested on: Echinochloa crus-galli var. oryzicola; test: Test Example 1: pot test on selectivity, inhibition of Echinochloa crus-galli var. oryzicola; assay type: in vivo; settings: dry weight 30 days after treatment; for inhibition at 750 g/ha / inhibition at 1500 g/ha / inhibition at 3000 g/ha / inhibition at 6000 g/ha / inhibition at 9000 g/ha: Echinochloa crus-galli, 720 h
Experimental: as §1, §4

[5] = read-out: Inhibition (%) by treatment at 1-leaf stage of E. crus-galli var. oryzicola, paddy rice
[6] = read-out: Inhibition (%) by treatment at 5-leaf stage of E. crus-galli var. oryzicola, paddy rice
[7] = read-out: Inhibition (%) by treatment at 1-leaf stage of E. crus-galli var. oryzicola, E. crus-galli var. oryzicola
[8] = read-out: Inhibition (%) by treatment at 5-leaf stage of E. crus-galli var. oryzicola, E. crus-galli var. oryzicola

O=[N+]([O-])c1ccc(Oc2c(Cl)cc(Cl)cc2Cl)cc1 [CNP, 2,4,6-trichlorophenyl-4'-nitrophenylether]
inhibition at 1000 g/ha (paddy rice [1]; 100 g/10 are, granule, rice at 3.5 leaves stage, 30 days, read-out: Inhibition (%) by treatment at 1-leaf stage of E. crus-galli var. oryzicola, paddy rice): 0%
inhibition at 1000 g/ha (paddy rice [1]; 100 g/10 are, granule, rice at 7 leaves stage, 30 days, read-out: Inhibition (%) by treatment at 5-leaf stage of E. crus-galli var. oryzicola, paddy rice): 0%
inhibition at 3000 g/ha (paddy rice [1]; 300 g/10 are, granule, rice at 3.5 leaves stage, 30 days, read-out: Inhibition (%) by treatment at 1-leaf stage of E. crus-galli var. oryzicola, paddy rice): 8%
inhibition at 3000 g/ha (paddy rice [1]; 300 g/10 are, granule, rice at 7 leaves stage, 30 days, read-out: Inhibition (%) by treatment at 5-leaf stage of E. crus-galli var. oryzicola, paddy rice): 0%
inhibition at 9000 g/ha (paddy rice [1]; granule, rice at 3.5 leaves stage, 30 days, read-out: Inhibition (%) by treatment at 1-leaf stage of E. crus-galli var. oryzicola, paddy rice): 52%
inhibition at 9000 g/ha (paddy rice [1]; granule, rice at 7 leaves stage, 30 days, read-out: Inhibition (%) by treatment at 5-leaf stage of E. crus-galli var. oryzicola, paddy rice): 0%
inhibition at 1000 g/ha ([2]; 100 g/10 are, granule, 30 days after treatment, read-out: Inhibition (%) by treatment at 1-leaf stage of E. crus-galli var. oryzicola, E. crus-galli var. oryzicola): 65%
inhibition at 1000 g/ha ([2]; 100 g/10 are, granule, 30 days after treatment, read-out: Inhibition (%) by treatment at 5-leaf stage of E. crus-galli var. oryzicola, E. crus-galli var. oryzicola): 0%
inhibition at 3000 g/ha ([2]; 300 g/10 are, granule, 30 days after treatment, read-out: Inhibition (%) by treatment at 1-leaf stage of E. crus-galli var. oryzicola, E. crus-galli var. oryzicola): 100%
inhibition at 3000 g/ha ([2]; 300 g/10 are, granule, 30 days after treatment, read-out: Inhibition (%) by treatment at 5-leaf stage of E. crus-galli var. oryzicola, E. crus-galli var. oryzicola): 0%
inhibition at 9000 g/ha ([2]; granule, 30 days after treatment, read-out: Inhibition (%) by treatment at 1-leaf stage of E. crus-galli var. oryzicola, E. crus-galli var. oryzicola): 100%
inhibition at 9000 g/ha ([2]; granule, 30 days after treatment, read-out: Inhibition (%) by treatment at 5-leaf stage of E. crus-galli var. oryzicola, E. crus-galli var. oryzicola): 0%

CCNc1nc(NCC)nc(SC)n1 [Simetryne, 2,4-bis(ethylamino)-6-methylthio-1,3,5-triazine]
inhibition at 300 g/ha (paddy rice [1]; [5]): 0%
inhibition at 1000 g/ha (paddy rice [1]; [5]): 74%
inhibition at 3000 g/ha (paddy rice [1]; [5]): 100%
inhibition at 300 g/ha (paddy rice [1]; [6]): 0%
inhibition at 1000 g/ha (paddy rice [1]; [6]): 17%
inhibition at 3000 g/ha (paddy rice [1]; [6]): 46%
inhibition at 300 g/ha [2, 7]: 20%
inhibition at 1000 g/ha [2, 7]: 100%
inhibition at 3000 g/ha [2, 7]: 100%
inhibition at 300 g/ha [2, 8]: 0%
inhibition at 1000 g/ha [2, 8]: 7%
inhibition at 3000 g/ha [2, 8]: 36%

CC=CCOc1ccc(NC(=O)N(C)C)cc1 [Mixture of trans- and cis-forms 1:4]
Inhibition (%) by treatment at 1-leaf stage, paddy rice (paddy rice [3]; 75 g/10 are, 1-leaf stage): 0%
Inhibition (%) by treatment at 5-leaf stage, paddy rice (paddy rice [3]; 75 g/10 are, 5-leaf stage): 0%
Inhibition (%) by treatment at 1-leaf stage, paddy rice (paddy rice [3]; 150 g/10 are, 1-leaf stage): 0%
Inhibition (%) by treatment at 5-leaf stage, paddy rice (paddy rice [3]; 150 g/10 are, 5-leaf stage): 0%
Inhibition (%) by treatment at 1-leaf stage, paddy rice (paddy rice [3]; 300 g/10 are, 1-leaf stage): 0%
Inhibition (%) by treatment at 5-leaf stage, paddy rice (paddy rice [3]; 300 g/10 are, 5-leaf stage): 0%
Inhibition (%) by treatment at 1-leaf stage, paddy rice (paddy rice [3]; 600 g/10 are, 1-leaf stage): 0%
Inhibition (%) by treatment at 5-leaf stage, paddy rice (paddy rice [3]; 600 g/10 are, 5-leaf stage): 0%
Inhibition (%) by treatment at 1-leaf stage, paddy rice (paddy rice [3]; 900 g/10 are, 1-leaf stage): 4%
Inhibition (%) by treatment at 5-leaf stage, paddy rice (paddy rice [3]; 900 g/10 are, 5-leaf stage): 0%
Inhibition (%) by treatment at 1-leaf stage, E. crus-galli var. oryzicola ([4]; 75 g/10 are, 1-leaf stage): 93%
Inhibition (%) by treatment at 5-leaf stage, E. crus-galli var. oryzicola ([4]; 75 g/10 are, 5-leaf stage): 84%
Inhibition (%) by treatment at 1-leaf stage, E. crus-galli var. oryzicola ([4]; 150 g/10 are, 1-leaf stage): 100%
Inhibition (%) by treatment at 5-leaf stage, E. crus-galli var. oryzicola ([4]; 150 g/10 are, 5-leaf stage): 100%
Inhibition (%) by treatment at 1-leaf stage, E. crus-galli var. oryzicola ([4]; 300 g/10 are, 1-leaf stage): 100%
Inhibition (%) by treatment at 5-leaf stage, E. crus-galli var. oryzicola ([4]; 300 g/10 are, 5-leaf stage): 100%
Inhibition (%) by treatment at 1-leaf stage, E. crus-galli var. oryzicola ([4]; 600 g/10 are, 1-leaf stage): 100%
Inhibition (%) by treatment at 5-leaf stage, E. crus-galli var. oryzicola ([4]; 600 g/10 are, 5-leaf stage): 100%
Inhibition (%) by treatment at 1-leaf stage, E. crus-galli var. oryzicola ([4]; 900 g/10 are, 1-leaf stage): 100%
Inhibition (%) by treatment at 5-leaf stage, E. crus-galli var. oryzicola ([4]; 900 g/10 are, 5-leaf stage): 100%

CC=CCOc1ccc(NC(=O)N(C)C)cc1 [Mixture of trans- and cis-forms 4:1]
Inhibition (%) by treatment at 1-leaf stage, paddy rice (paddy rice [3]; 900 g/10 are, 1-leaf stage): 1%
inhibition at 750 g/ha (paddy rice [3]; Oryza sativa, 720 h, 75 g/10 are, 1-leaf stage, read-out: Inhibition (%) by treatment at 1-leaf stage, paddy rice): 0%
inhibition at 750 g/ha (paddy rice [3]; Oryza sativa, 720 h, 75 g/10 are, 5-leaf stage, read-out: Inhibition (%) by treatment at 5-leaf stage, paddy rice): 0%
inhibition at 1500 g/ha (paddy rice [3]; Oryza sativa, 720 h, 150 g/10 are, 1-leaf stage, read-out: Inhibition (%) by treatment at 1-leaf stage, paddy rice): 0%
inhibition at 1500 g/ha (paddy rice [3]; Oryza sativa, 720 h, 150 g/10 are, 5-leaf stage, read-out: Inhibition (%) by treatment at 5-leaf stage, paddy rice): 0%
inhibition at 3000 g/ha (paddy rice [3]; Oryza sativa, 720 h, 300 g/10 are, 1-leaf stage, read-out: Inhibition (%) by treatment at 1-leaf stage, paddy rice): 0%
inhibition at 3000 g/ha (paddy rice [3]; Oryza sativa, 720 h, 300 g/10 are, 5-leaf stage, read-out: Inhibition (%) by treatment at 5-leaf stage, paddy rice): 0%
inhibition at 6000 g/ha (paddy rice [3]; Oryza sativa, 720 h, 600 g/10 are, 1-leaf stage, read-out: Inhibition (%) by treatment at 1-leaf stage, paddy rice): 0%
inhibition at 6000 g/ha (paddy rice [3]; Oryza sativa, 720 h, 600 g/10 are, 5-leaf stage, read-out: Inhibition (%) by treatment at 5-leaf stage, paddy rice): 0%
inhibition at 9000 g/ha (paddy rice [3]; Oryza sativa, 720 h, 900 g/10 are, 5-leaf stage, read-out: Inhibition (%) by treatment at 5-leaf stage, paddy rice): 0%
inhibition at 750 g/ha ([4]; 75 g/10 are, 1-leaf stage, read-out: Inhibition (%) by treatment at 1-leaf stage, E. crus-galli var. oryzicola): 94%
inhibition at 750 g/ha ([4]; 75 g/10 are, 5-leaf stage, read-out: Inhibition (%) by treatment at 5-leaf stage, E. crus-galli var. oryzicola): 80%
inhibition at 1500 g/ha ([4]; 150 g/10 are, 1-leaf stage, read-out: Inhibition (%) by treatment at 1-leaf stage, E. crus-galli var. oryzicola): 100%
inhibition at 1500 g/ha ([4]; 150 g/10 are, 5-leaf stage, read-out: Inhibition (%) by treatment at 5-leaf stage, E. crus-galli var. oryzicola): 100%
inhibition at 3000 g/ha ([4]; 300 g/10 are, 1-leaf stage, read-out: Inhibition (%) by treatment at 1-leaf stage, E. crus-galli var. oryzicola): 100%
inhibition at 3000 g/ha ([4]; 300 g/10 are, 5-leaf stage, read-out: Inhibition (%) by treatment at 5-leaf stage, E. crus-galli var. oryzicola): 100%
inhibition at 6000 g/ha ([4]; 600 g/10 are, 1-leaf stage, read-out: Inhibition (%) by treatment at 1-leaf stage, E. crus-galli var. oryzicola): 100%
inhibition at 6000 g/ha ([4]; 600 g/10 are, 5-leaf stage, read-out: Inhibition (%) by treatment at 5-leaf stage, E. crus-galli var. oryzicola): 100%
inhibition at 9000 g/ha ([4]; 900 g/10 are, 1-leaf stage, read-out: Inhibition (%) by treatment at 1-leaf stage, E. crus-galli var. oryzicola): 100%
inhibition at 9000 g/ha ([4]; 900 g/10 are, 5-leaf stage, read-out: Inhibition (%) by treatment at 5-leaf stage, E. crus-galli var. oryzicola): 100%
